{"source": "patent US9282759B2", "about": "“Composition including an unsaponifiable fraction” (LABORATOIRES EXPANSCIENCE, priority 2009, dated 2016)", "system": "PGE2 production of arthrosis chondrocytes", "assay": "PGE2 production of arthrosis chondrocytes (radioimmunoassay of culture media, per μg DNA)", "type": "cell-based, human", "conditions": "10 μg/ml of the composition in culture medium, 48 h, chondrocytes of osteoarthritis patients, compared with basal conditions (9±4 pg PGE2 per μg DNA)", "description": "Thin slices of cartilage of patients suffering from osteoarthritis were excised while avoiding the calcified layer. They were washed several times in DMEM medium containing HEPES, penicillin and streptomycin. The slices of cartilage were then cut into small fragments of a few cubic millimeters.\nChondrocytes were then isolated from the extracellular matrix by a succession of enzymatic digestions. The cartilage fragments were incubated at 37° C. under constant agitation in the basic medium with, successively, hyaluronidase, pronase E and finally with clostridial collagenase.\nThe cells were then filtered through a 70 μm nylon membrane, washed with DMEM and counted using a Neubauer plate. […]\nThe cultures were maintained at 37° C. in an atmosphere of 95% air and 5% CO2. At the end of the incubation period, the culture media were taken and stored at −20° C. until they were analysed. […]\nDeoxyribonucleic acid (DNA) was quantified according to the technique of Labarca and Paigen (Labarca C. and Paigen K. A simple, rapid, and sensitive DNA assay procedure, Anal Biochem, 1980. 102: 344-52). This method is based on the principle of fluorescence emitted by a reagent, bis-benzimidazole, when it binds to DNA. […] After 1 h of incubation, the samples were read with a fluorometer using an excitation wavelength of 356 nm and an emission wavelength of 458 nm. […]"}
{"substance": "vitamin K2 [composition 4]", "values": [{"measurement": "quantity of PGE2 produced", "value": "remains constant"}]}
